Measured values taken from paper PMC12363792 (bioRxiv, 2025).

Tests used:
[1] = system: CA1 hippocampal neurons; experiment: 2-photon FRET cAMP imaging in acute brain slices; format: cell-based, mice; conditions: bath application 100 nM, CaMKIIα-Cre:CAMPER+/− slices
[2] = target: D2R (Homo sapiens, UniProt P14416); format: cell-based; conditions: D2R vs D3R
[3] = system: D2R; conditions: cited from earlier work

Chain of D2R (Homo sapiens, UniProt P14416) (P14416 whole entry): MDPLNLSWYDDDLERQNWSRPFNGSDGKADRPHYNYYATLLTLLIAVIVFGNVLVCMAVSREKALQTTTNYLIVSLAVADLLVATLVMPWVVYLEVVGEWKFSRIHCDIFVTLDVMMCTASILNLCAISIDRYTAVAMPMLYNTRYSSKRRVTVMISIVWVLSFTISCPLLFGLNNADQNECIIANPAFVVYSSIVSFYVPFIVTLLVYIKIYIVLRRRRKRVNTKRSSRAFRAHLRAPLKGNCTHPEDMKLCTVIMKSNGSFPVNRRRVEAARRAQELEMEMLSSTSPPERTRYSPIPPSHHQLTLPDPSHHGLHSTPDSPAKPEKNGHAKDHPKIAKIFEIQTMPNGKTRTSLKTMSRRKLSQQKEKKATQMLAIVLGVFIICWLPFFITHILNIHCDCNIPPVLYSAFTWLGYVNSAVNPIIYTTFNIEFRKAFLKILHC

## COc1ccc(OCCN2CCN(C(=O)c3cc4ccccc4[nH]3)CC2)cc1 [ML417]
[1]
  agonist-induced cAMP response: increase in cAMP production

## CN[C@@H]1Cc2cccc3[nH]c(=O)n(c23)C1 [sumanirole]
[2]
  activation of GoA via D2R compared to D3R: five
[1]
  agonist-induced cAMP response: robust inhibition of cAMP
[3]
  affinity for D2R over D3R: 200 fold
